Test results reported in US20100298141A1, “SUBSTITUTED PYRIDINE N-OXIDE HERBICIDES” (E. I. DU PONT DE NEMOURS AND COMPANY, priority 2007, published 2010).

Assays:
crabgrass = assay: Test A pre-/postemergence greenhouse test; format: in vivo, Digitaria sanguinalis; conditions: for Crabgrass, Large plant response rating: 0 to 100 scale; for Plant response rating, Crabgrass, Large: 0 to 100 scale where 0 is no effect and 100 is complete control
Procedure, shortened: (§1)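 Untreated controls served as the reference for visual injury ratings taken about ten days after spraying. The non-phytotoxic solvent/surfactant formulation was applied preemergence to seeded loam and sand and postemergence to plants two to ten cm high.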

giant foxtail [1] = assay: Test A pre-/postemergence greenhouse test; format: in vivo, Setaria faberi; conditions: for Foxtail, Giant plant response rating: 0 to 100 scale; for Plant response rating, Foxtail, Giant: 0 to 100 scale where 0 is no effect and 100 is complete control
Procedure, shortened: as §1

morningglory [2] = assay: Test A pre-/postemergence greenhouse test; format: in vivo, Ipomoea spp.; conditions: for Morningglory plant response rating: 0 to 100 scale; for Plant response rating, Morningglory: 0 to 100 scale where 0 is no effect and 100 is complete control
Procedure, shortened: as §1

wheat = assay: Test A pre-/postemergence greenhouse test; format: in vivo, Triticum aestivum; conditions: for Wheat plant response rating: 0 to 100 scale; for Plant response rating, Wheat: 0 to 100 scale where 0 is no effect and 100 is complete control
Procedure, shortened: as §1

downy brome = assay: Test C pre-/postemergence test; format: in vivo, Bromus tectorum; conditions: for Plant response rating (0 to 100), Bromegrass, Downy: 250 g ai/ha
Procedure, shortened: (§2)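 Test chemicals were formulated with surfactant in a non-phytotoxic solvent and sprayed both on freshly planted seeds (preemergence) and on 1- to 4-leaf plants of 2–18 cm (postemergence). Flooded-paddy pots received compound directly into 3 cm of standing water, maintained for the test.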

cocklebur = assay: Test C pre-/postemergence test; format: in vivo, Xanthium strumarium; conditions: for Plant response rating (0 to 100), Cocklebur: 250 g ai/ha
Procedure, shortened: as §2

corn = assay: Test C pre-/postemergence test; format: in vivo, Zea mays; conditions: for Plant response rating (0 to 100), Corn: 250 g ai/ha
Procedure, shortened: as §2

woolly cupgrass = assay: Test C pre-/postemergence test; format: in vivo, Eriochloa villosa; conditions: for Plant response rating (0 to 100), Cupgrass, Woolly: 250 g ai/ha
Procedure, shortened: as §2

giant foxtail [3] = assay: Test C pre-/postemergence test; format: in vivo, Setaria faberii; conditions: for Plant response rating (0 to 100), Foxtail, Giant: 250 g ai/ha
Procedure, shortened: as §2

Goosegrass = assay: Test C pre-/postemergence test; format: in vivo, Eleusin indica; conditions: for Plant response rating (0 to 100), Goosegrass: 250 g ai/ha
Procedure, shortened: as §2

johnsongrass = assay: Test C pre-/postemergence test; format: in vivo, Sorghum halepense; conditions: for Plant response rating (0 to 100), Johnsongrass: 250 g ai/ha
Procedure, shortened: as §2

lambsquarters = assay: Test C pre-/postemergence test; format: in vivo, Chenopodium album
Procedure, shortened: as §2

morningglory [4] = assay: Test C pre-/postemergence test; format: in vivo, Ipomoea coccinea
Procedure, shortened: as §2

yellow nutsedge = assay: Test C pre-/postemergence test; format: in vivo, Cyperus esculentus
Procedure, shortened: as §2

common ragweed = assay: Test C pre-/postemergence test; format: in vivo, Ambrosia elation
Procedure, shortened: as §2

soybean = assay: Test C pre-/postemergence test; format: in vivo, Glycine max
Procedure, shortened: as §2

umbrella sedge = assay: Test C flooded paddy test; format: in vivo, Cyperus difformis; conditions: Flood
Procedure, shortened: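 Flooded 3 cm over soil; compound into paddy water; depth kept constant. Greenhouse 13–15 d.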

[5] = Postemergence, 125 g ai/ha, 0 is no effect, 100 is complete control
[6] = Postemergence, 500 g ai/ha, 0 is no effect, 100 is complete control
[7] = Preemergence, 125 g ai/ha, 0 no effect, 100 complete control
[8] = 62 g ai/ha, Preemergence, scale 0 to 100
[9] = Preemergence, 31 g ai/ha, scale 0 to 100 (0 no effect, 100 complete control)
[10] = preemergence, 125 g ai/ha, scale 0 (no effect) to 100 (complete control)
[11] = 31 g ai/ha, scale 0 to 100 (0 no effect, 100 complete control)
[12] = 62 g ai/ha, scale 0 to 100, 0 no effect, 100 complete control, 13 to 15 days
[13] = 125 g ai/ha, scale 0 to 100, 0 no effect, 100 complete control, 13 to 15 days
[14] = 31 g ai/ha, Preemergence, scale 0 to 100

Structure (SMILES): Cc1cc[n+]([O-])c(S(=O)(=O)Cc2c(C(F)(F)F)nn(C)c2Cl)c1 [Compound 19]
- Crabgrass, Large plant response rating (crabgrass; [5]): 40
- Crabgrass, Large plant response rating (crabgrass; [6]): 80
- Crabgrass, Large plant response rating (crabgrass; [7]): 70
- Plant response rating, Crabgrass, Large (crabgrass; Preemergence, 500 g ai/ha): 100
- Foxtail, Giant plant response rating (giant foxtail [1]; [5]): 50
- Foxtail, Giant plant response rating (giant foxtail [1]; [6]): 80
- Foxtail, Giant plant response rating (giant foxtail [1]; [7]): 80
- Plant response rating, Foxtail, Giant (giant foxtail [1]; Preemergence, 500 g ai/ha): 100
- Morningglory plant response rating (morningglory [2]; [5]): 20
- Morningglory plant response rating (morningglory [2]; [6]): 30
- Morningglory plant response rating (morningglory [2]; [7]): 60
- Plant response rating, Morningglory (morningglory [2]; Preemergence, 500 g ai/ha): 80
- Wheat plant response rating (wheat; [5]): 0
- Wheat plant response rating (wheat; [6]): 50
- Wheat plant response rating (wheat; [7]): 40
- Plant response rating, Wheat (wheat; Preemergence, 500 g ai/ha): 70
- Bromegrass, Downy plant response rating (downy brome; [8]): 0
- Plant response rating, Bromegrass, Downy (downy brome; [9]): 0
- Plant response rating (0 to 100), Bromegrass, Downy (downy brome; Preemergence): 0
- Bromegrass, Downy plant response rating (downy brome; [10]): 0
- Cocklebur plant response rating (cocklebur; [8]): 0
- Plant response rating, Cocklebur (cocklebur; [9]): 0
- Plant response rating (0 to 100), Cocklebur (cocklebur; Preemergence): 30
- Cocklebur plant response rating (cocklebur; [10]): 0
- Corn plant response rating (corn; [8]): 40
- Plant response rating, Corn (corn; [9]): 0
- Plant response rating (0 to 100), Corn (corn; Preemergence): 70
- Corn plant response rating (corn; [10]): 40
- Cupgrass, Woolly plant response rating (woolly cupgrass; [8]): 100
- Plant response rating, Cupgrass, Woolly (woolly cupgrass; [9]): 0
- Plant response rating (0 to 100), Cupgrass, Woolly (woolly cupgrass; Preemergence): 100
- Foxtail, Giant plant response rating (giant foxtail [3]; [8]): 100
- Plant response rating, Foxtail, Giant (giant foxtail [3]; [9]): 100
- Plant response rating (0 to 100), Foxtail, Giant (giant foxtail [3]; Preemergence): 100
- Goosegrass plant response rating (Goosegrass; [8]): 100
- Plant response rating, Goosegrass (Goosegrass; [9]): 100
- Plant response rating (0 to 100), Goosegrass (Goosegrass; Preemergence): 100
- Johnsongrass plant response rating (johnsongrass; [8]): 80
- Plant response rating, Johnsongrass (johnsongrass; [9]): 10
- Plant response rating (0 to 100), Johnsongrass (johnsongrass; Preemergence): 100
- Lambsquarters plant response rating (lambsquarters; [8]): 0
- Plant response rating, Lambsquarters (lambsquarters; [9]): 0
- Morningglory plant response rating (morningglory [4]; [8]): 60
- Plant response rating, Morningglory (morningglory [4]; [9]): 0
- Nutsedge, Yellow plant response rating (yellow nutsedge; [8]): 70
- Plant response rating, Nutsedge, Yellow (yellow nutsedge; [9]): 40
- Ragweed plant response rating (common ragweed; [8]): 0
- Plant response rating, Ragweed (common ragweed; [9]): 0
- Soybean plant response rating (soybean; [8]): 0
- Plant response rating, Soybean (soybean; [9]): 0
- Plant response rating, Sedge, Umbrella (umbrella sedge; [11]): 0
- Plant response rating, Sedge, Umbrella (umbrella sedge; [12]): 0
- Plant response rating, Sedge, Umbrella (umbrella sedge; [13]): 70
- Plant response rating, Sedge, Umbrella (umbrella sedge; 250 g ai/ha, scale 0 to 100, 0 no effect, 100 complete control, 13 to 15 days): 95

Structure (SMILES): Cn1nc(C(F)(F)F)c(CS(=O)(=O)c2cccc[n+]2[O-])c1Cl [Compound 9]
- Crabgrass, Large plant response rating (crabgrass; [5]): 80
- Crabgrass, Large plant response rating (crabgrass; [6]): 90
- Crabgrass, Large plant response rating (crabgrass; [7]): 100
- Plant response rating, Crabgrass, Large (crabgrass; Preemergence, 500 g ai/ha): 100
- Foxtail, Giant plant response rating (giant foxtail [1]; [5]): 90
- Foxtail, Giant plant response rating (giant foxtail [1]; [6]): 90
- Foxtail, Giant plant response rating (giant foxtail [1]; [7]): 100
- Plant response rating, Foxtail, Giant (giant foxtail [1]; Preemergence, 500 g ai/ha): 100
- Morningglory plant response rating (morningglory [2]; [5]): 20
- Morningglory plant response rating (morningglory [2]; [6]): 70
- Morningglory plant response rating (morningglory [2]; [7]): 40
- Plant response rating, Morningglory (morningglory [2]; Preemergence, 500 g ai/ha): 70
- Wheat plant response rating (wheat; [5]): 40
- Wheat plant response rating (wheat; [6]): 60
- Wheat plant response rating (wheat; [7]): 50
- Plant response rating, Wheat (wheat; Preemergence, 500 g ai/ha): 70
- Bromegrass, Downy plant response rating (downy brome; [14]): 0
- Bromegrass, Downy plant response rating (downy brome; 62 g ai/ha, preemergence, scale 0 (no effect) to 100 (complete control)): 0
- Plant response rating (0 to 100), Bromegrass, Downy (downy brome; Preemergence): 20
- Bromegrass, Downy plant response rating (downy brome; [10]): 20
- Cocklebur plant response rating (cocklebur; [14]): 0
- Plant response rating (0 to 100), Cocklebur (cocklebur; Preemergence): 0
- Cocklebur plant response rating (cocklebur; [10]): 0
- Corn plant response rating (corn; [14]): 20
- Plant response rating (0 to 100), Corn (corn; Preemergence): 98
- Corn plant response rating (corn; [10]): 98
- Cupgrass, Woolly plant response rating (woolly cupgrass; [14]): 0
- Plant response rating (0 to 100), Cupgrass, Woolly (woolly cupgrass; Preemergence): 100
- Cupgrass, Woolly plant response rating (woolly cupgrass; [10]): 100
- Foxtail, Giant plant response rating (giant foxtail [3]; [14]): 85
- Plant response rating (0 to 100), Foxtail, Giant (giant foxtail [3]; Preemergence): 100
- Foxtail, Giant plant response rating (giant foxtail [3]; [10]): 100
- Goosegrass plant response rating (Goosegrass; [14]): 100
- Plant response rating (0 to 100), Goosegrass (Goosegrass; Preemergence): 100
- Goosegrass plant response rating (Goosegrass; [10]): 100
- Johnsongrass plant response rating (johnsongrass; [14]): 45
- Plant response rating (0 to 100), Johnsongrass (johnsongrass; Preemergence): 100
- Johnsongrass plant response rating (johnsongrass; [10]): 100
- Lambsquarters plant response rating (lambsquarters; [14]): 0
- Plant response rating (0 to 100), Lambsquarters (lambsquarters; Preemergence, 250 g ai/ha): 100
- Lambsquarters plant response rating (lambsquarters; [10]): 80
- Morningglory plant response rating (morningglory [4]; [14]): 0
- Plant response rating (0 to 100), Morningglory (morningglory [4]; Preemergence, 250 g ai/ha): 100
- Morningglory plant response rating (morningglory [4]; [10]): 90
- Nutsedge, Yellow plant response rating (yellow nutsedge; [14]): 40
- Plant response rating (0 to 100), Nutsedge, Yellow (yellow nutsedge; Preemergence, 250 g ai/ha): 100
- Nutsedge, Yellow plant response rating (yellow nutsedge; [10]): 100
- Ragweed plant response rating (common ragweed; [14]): 45
- Plant response rating (0 to 100), Ragweed (common ragweed; Preemergence, 250 g ai/ha): 100
- Ragweed plant response rating (common ragweed; [10]): 90
- Soybean plant response rating (soybean; [14]): 10
- Plant response rating (0 to 100), Soybean (soybean; Preemergence, 250 g ai/ha): 45
- Soybean plant response rating (soybean; [10]): 40
- Plant response rating, Sedge, Umbrella (umbrella sedge; [11]): 0
- Plant response rating, Sedge, Umbrella (umbrella sedge; [12]): 85
- Plant response rating, Sedge, Umbrella (umbrella sedge; [13]): 90
- Plant response rating, Sedge, Umbrella (umbrella sedge; 250 g ai/ha, scale 0 to 100 (0 no effect, 100 complete control)): 100
